Assay results as given in patent publication US4864023A, “Pyrido(3,2,1-IJ)-1,3,4-benzoxadiazine derivatives” (priority 1988, dated 1989).
Converted amounts (≈) assume the structure as drawn. Like-named read-outs stand apart in the source and are kept apart here.

Experiments:
Test in all cases: in vitro antibacterial activity, standard agar dilution method
Format in all cases: cell-based
[1] = tested on: Bacillus subtilis PCI 219; conditions: PCI219, aerobic, read-out: minimum inhibitory concentration (MIC)
[2] = tested on: Staphylococcus aureus FDA 209P JC-1; conditions: FDA209P, read-out: minimum inhibitory concentration (MIC)
[3] = tested on: Staphylococcus aureus NR 2855
[4] = tested on: Staphylococcus aureus Smith; conditions: read-out: minimum inhibitory concentration (MIC)
[5] = tested on: Staphylococcus epidermidis IFO 12993; conditions: IFO12993, aerobic, read-out: minimum inhibitory concentration (MIC)
[6] = tested on: Staphylococcus epidermidis NR 2942; conditions: NR2942, aerobic, read-out: minimum inhibitory concentration (MIC)
[7] = tested on: Enterococcus faecalis NR 2943; conditions: NR2943, aerobic, read-out: minimum inhibitory concentration (MIC)
[8] = tested on: Alcaligenes faecalis IFO 13111; conditions: IFO13111, aerobic, read-out: minimum inhibitory concentration (MIC)
[9] = tested on: Citrobacter freundii IFO 12681; conditions: IFO12681, aerobic, read-out: minimum inhibitory concentration (MIC)
[10] = tested on: Enterobacter aerogenes NR 2945; conditions: Klebsiella aerogenes, NR2945, aerobic, read-out: minimum inhibitory concentration (MIC)
[11] = tested on: Enterobacter cloacae NR 2946; conditions: NR2946, aerobic, read-out: minimum inhibitory concentration (MIC)
[12] = tested on: Escherichia coli NIHJ JC-2; conditions: NIHJJC2, aerobic, read-out: minimum inhibitory concentration (MIC)
[13] = tested on: Escherichia coli NR 2630; conditions: NR2630; Escherichia coli NR 2630; aerobic; agar dilution; read-out: minimum inhibitory concentration (MIC)
[14] = tested on: Klebsiella pneumoniae FDA PCI 602; conditions: FDAPCI602, aerobic, read-out: minimum inhibitory concentration (MIC)
[15] = tested on: Bordetella bronchiseptica ATCC 4617; conditions: ATCC4617, aerobic, read-out: minimum inhibitory concentration (MIC)
[16] = tested on: Proteus rettgeri ATCC 14505; conditions: Providencia rettgeri, ATCC14505, aerobic, read-out: minimum inhibitory concentration (MIC)
[17] = tested on: Proteus vulgaris OX19 ATCC 6898; conditions: ATCC6898, aerobic, read-out: minimum inhibitory concentration (MIC)
[18] = tested on: Pseudomonas aeruginosa A3; conditions: aerobic, read-out: minimum inhibitory concentration (MIC)
[19] = tested on: Pseudomonas aeruginosa NR 2950; conditions: NR2950, aerobic, read-out: minimum inhibitory concentration (MIC)
[20] = tested on: Serratia marcescens IFO 12648; conditions: IFO12648, aerobic, read-out: minimum inhibitory concentration (MIC)
[21] = tested on: Salmonella typhimurium IFO 12529; conditions: Salmonella enterica, aerobic, read-out: minimum inhibitory concentration (MIC)
[22] = Staphylococcus aureus FDA 209P JC-1, aerobic, agar dilution
[23] = NR2855, Staphylococcus aureus NR 2855, aerobic, agar dilution, read-out: minimum inhibitory concentration (MIC)
[24] = Staphylococcus aureus Smith, aerobic, agar dilution

Structure (SMILES) | MIC [1] [µg/mL] | MIC [3, 23] [µg/mL] | MIC [4, 24] [µg/mL] | MIC [5] [µg/mL] | MIC [6] [µg/mL] | MIC [7] [µg/mL] | MIC [8] [µg/mL] | MIC [9] [µg/mL] | MIC [10] [µg/mL] | MIC [11] [µg/mL] | MIC [12] [µg/mL] | MIC [13] [µg/mL] | MIC [14] [µg/mL] | MIC [15] [µg/mL] | MIC [16] [µg/mL] | MIC [17] [µg/mL] | MIC [18] [µg/mL] | MIC [19] [µg/mL] | MIC [20] [µg/mL] | MIC [21] [µg/mL] | also measured
CN1COc2c(N3CCNC(=O)C3)c(F)cc3c(=O)c(C(=O)O)cn1c23 [Example 24, 9-fluoro-3-methyl-7-oxo-10-(3-oxo-1-piperazinyl)-2,3-dihydro-7H-pyrido[3,2,1-ij]-1,3,4-benzoxadiazine-6-carboxylic acid] | 0.39 (≈ 1.08 µM) | 6.25 (≈ 17.3 µM) | 1.56 (≈ 4.31 µM) | 3.13 (≈ 8.64 µM) | 3.13 (≈ 8.64 µM) | 25 (≈ 69 µM) | 25 (≈ 69 µM) | 1.56 (≈ 4.31 µM) | 0.78 (≈ 2.15 µM) | 3.13 (≈ 8.64 µM) | 1.56 (≈ 4.31 µM) | 0.78 (≈ 2.15 µM) | 6.25 (≈ 17.3 µM) | 50 (≈ 138 µM) | 12.5 (≈ 34.5 µM) | 0.39 (≈ 1.08 µM) | 3.13 (≈ 8.64 µM) | 25 (≈ 69 µM) | 6.25 (≈ 17.3 µM) | 0.78 (≈ 2.15 µM) | MIC [2, 22]: 1.56 µg/mL (≈ 4.31 µM)
CC(=O)N1CCN(c2c(F)cc3c(=O)c(C(=O)O)cn4c3c2OCN4C)CC1 [Example 50, 10-(4-acetyl-1-piperazinyl)-9-fluoro-3-methyl-7-oxo-2,3-dihydro-7H-pyrido[3,2,1-ij]-1,3,4-benzoxadiazine-6-carboxylic acid] | 0.0065 (≈ 0.0167 µM) | – | 0.1 (≈ 0.256 µM) | 0.39 (≈ 0.999 µM) | 0.2 (≈ 0.512 µM) | 3.13 (≈ 8.02 µM) | 12.5 (≈ 32 µM) | 3.13 (≈ 8.02 µM) | 0.78 (≈ 2 µM) | 1.56 (≈ 4 µM) | 1.56 (≈ 4 µM) | 0.2 (≈ 0.512 µM) | 6.25 (≈ 16 µM) | 3.13 (≈ 8.02 µM) | 6.25 (≈ 16 µM) | 0.39 (≈ 0.999 µM) | 6.25 (≈ 16 µM) | 25 (≈ 64 µM) | 3.13 (≈ 8.02 µM) | 0.78 (≈ 2 µM) | MIC ([2]; Staphylococcus aureus): 0.39 µg/mL (≈ 0.999 µM); MIC ([3]; Staphylococcus aureus, NR2855, read-out: minimum inhibitory concentration (MIC)): 0.39 µg/mL (≈ 0.999 µM)
CCCN1CCN(c2c(F)cc3c(=O)c(C(=O)O)cn4c3c2OCN4C)CC1 [Example 43] | 0.1 (≈ 0.256 µM) | 0.78 (≈ 2 µM) | 0.39 (≈ 0.999 µM) | 0.39 (≈ 0.999 µM) | 0.39 (≈ 0.999 µM) | 6.25 (≈ 16 µM) | 0.78 (≈ 2 µM) | 0.1 (≈ 0.256 µM) | 0.1 (≈ 0.256 µM) | 0.1 (≈ 0.256 µM) | 0.1 (≈ 0.256 µM) | 0.05 (≈ 0.128 µM) | 0.39 (≈ 0.999 µM) | 0.39 (≈ 0.999 µM) | 0.78 (≈ 2 µM) | 0.1 (≈ 0.256 µM) | 0.78 (≈ 2 µM) | 6.25 (≈ 16 µM) | 0.2 (≈ 0.512 µM) | 0.1 (≈ 0.256 µM) | MIC [2, 22]: 0.78 µg/mL (≈ 2 µM)
CCNC1CCN(c2c(F)cc3c(=O)c(C(=O)O)cn4c3c2OCN4C)CC1 [Example 35] | 0.05 (≈ 0.128 µM) | 1.56 (≈ 4 µM) | – | 0.78 (≈ 2 µM) | 0.78 (≈ 2 µM) | 6.25 (≈ 16 µM) | 25 (≈ 64 µM) | 0.2 (≈ 0.512 µM) | 0.1 (≈ 0.256 µM) | 0.39 (≈ 0.999 µM) | 0.1 (≈ 0.256 µM) | 0.1 (≈ 0.256 µM) | 1.56 (≈ 4 µM) | 12.5 (≈ 32 µM) | 3.13 (≈ 8.02 µM) | 0.05 (≈ 0.128 µM) | 1.56 (≈ 4 µM) | 12.5 (≈ 32 µM) | 1.56 (≈ 4 µM) | 0.1 (≈ 0.256 µM) | MIC ([2]; Staphylococcus aureus): 0.39 µg/mL (≈ 0.999 µM); MIC ([4]; Staphylococcus aureus): 0.39 µg/mL (≈ 0.999 µM)

The remaining compounds from weak to strong by MIC [1], led by results:

MIC [1] [µg/mL] | MIC [3, 23] [µg/mL] | MIC [4, 24] [µg/mL] | MIC [5] [µg/mL] | MIC [6] [µg/mL] | MIC [7] [µg/mL] | MIC [8] [µg/mL] | MIC [9] [µg/mL] | MIC [10] [µg/mL] | MIC [11] [µg/mL] | MIC [12] [µg/mL] | MIC [13] [µg/mL] | MIC [14] [µg/mL] | MIC [15] [µg/mL] | MIC [16] [µg/mL] | MIC [17] [µg/mL] | MIC [18] [µg/mL] | MIC [19] [µg/mL] | MIC [20] [µg/mL] | MIC [21] [µg/mL] | Structure (SMILES) | also measured
0.1 (≈ 0.266 µM) | 0.78 (≈ 2.07 µM) | 0.1 (≈ 0.266 µM) | 0.39 (≈ 1.04 µM) | 0.39 (≈ 1.04 µM) | 3.13 (≈ 8.32 µM) | 50 (≈ 133 µM) | 0.78 (≈ 2.07 µM) | 0.2 (≈ 0.531 µM) | 0.78 (≈ 2.07 µM) | 0.2 (≈ 0.531 µM) | 0.1 (≈ 0.266 µM) | 3.13 (≈ 8.32 µM) | 6.25 (≈ 16.6 µM) | 12.5 (≈ 33.2 µM) | 0.1 (≈ 0.266 µM) | 0.78 (≈ 2.07 µM) | 12.5 (≈ 33.2 µM) | 3.13 (≈ 8.32 µM) | 0.2 (≈ 0.531 µM) | CN1COc2c(N3CCC(CN)CC3)c(F)cc3c(=O)c(C(=O)O)cn1c23 [Example 12] | MIC [2, 22]: 0.1 µg/mL (≈ 0.266 µM)
0.05 (≈ 0.129 µM) | 0.39 (≈ 1 µM) | 0.39 (≈ 1 µM) | 0.78 (≈ 2.01 µM) | 0.39 (≈ 1 µM) | 6.25 (≈ 16.1 µM) | 1.56 (≈ 4.02 µM) | 0.1 (≈ 0.257 µM) | 0.1 (≈ 0.257 µM) | 0.2 (≈ 0.515 µM) | 0.1 (≈ 0.257 µM) | 0.05 (≈ 0.129 µM) | 0.78 (≈ 2.01 µM) | 0.39 (≈ 1 µM) | 1.56 (≈ 4.02 µM) | 0.05 (≈ 0.129 µM) | 1.56 (≈ 4.02 µM) | 6.25 (≈ 16.1 µM) | 0.39 (≈ 1 µM) | 0.1 (≈ 0.257 µM) | C=CCN1CCN(c2c(F)cc3c(=O)c(C(=O)O)cn4c3c2OCN4C)CC1 [Example 46] | MIC [2, 22]: 0.78 µg/mL (≈ 2.01 µM)
0.025 (≈ 0.0629 µM) | 0.78 (≈ 1.96 µM) | 0.39 (≈ 0.981 µM) | 0.39 (≈ 0.981 µM) | 0.39 (≈ 0.981 µM) | 12.5 (≈ 31.5 µM) | 6.25 (≈ 15.7 µM) | 0.78 (≈ 1.96 µM) | 0.05 (≈ 0.126 µM) | 0.78 (≈ 1.96 µM) | 0.78 (≈ 1.96 µM) | 0.025 (≈ 0.0629 µM) | 1.56 (≈ 3.93 µM) | 0.78 (≈ 1.96 µM) | 3.13 (≈ 7.88 µM) | 0.05 (≈ 0.126 µM) | 3.13 (≈ 7.88 µM) | 12.5 (≈ 31.5 µM) | 1.56 (≈ 3.93 µM) | 0.2 (≈ 0.503 µM) | CN1COc2c(N3CCS(=O)(=O)CC3)c(F)cc3c(=O)c(C(=O)O)cn1c23 [Example 39, 10-(1,1-dioxide-4-thiomorpholinyl)-9-fluoro-3-methyl-7-oxo-2,3-dihydro-7H-pyrido[3,2,1-ij]-1,3,4-benzoxadiazine-6-carboxylic acid] | MIC [2, 22]: 0.39 µg/mL (≈ 0.981 µM)
